This test has as its system MOLP8 cells. Nature of the test: MOLP8 CellEvent Caspase-3/7 Green apoptosis activation assay (IncuCyte live-cell kinetic readout). The conditions noted are these: each independent run listed. The class given is cell-based. As for the experimental part: MCL-1 is a regulator of apoptosis and is highly over-expressed in tumor cells that escape cell death. The assay evaluates the cellular potency of small-molecule compounds targeting regulators of the apoptosis pathway, primarily MCL-1, Bfl-1, Bcl-2, and other proteins of the Bcl-2 family. Protein-protein inhibitors disrupting the interaction of anti-apoptotic regulators with BH3-domain proteins initiate apoptosis.
Activation of the apoptotic pathway was measured using the CellEvent™ Caspase-3/7 Green ReadyProbes™ Reagent (Thermo Fisher C10423, C10723). This assay produces a green fluorescent stain in cells that enter the apoptosis pathway. CellEvent® Caspase-3/7 Green reagent is a four amino acid peptide (DEVD) conjugated to a nucleic acid-binding dye that is non-fluorescent when not bound to DNA. The CellEvent® Caspase-3/7 Green reagent is intrinsically non-fluorescent, as the DEVD peptide inhibits binding of the dye to DNA. Upon activation of caspase-3/7 in apoptotic cells, the DEVD peptide is cleaved and the free dye can bind DNA, generating a bright green fluorescence. The activation of Caspase-3 and Caspase-7 is downstream of inhibition of MCL-1 or other apoptosis inhibiting proteins in cell lines that are dependent on them.
The live-cell readout on the IncuCyte permits tracking over time of the Caspase activation. […] The IncuCyte readout also allows one to normalize for cell number, as the suspension cells are hard to distribute evenly.
Signals were measured every 2 h for a duration of 22 h. The ratio of the Caspase mask to the Confluence mask, per image, as raw data, was calculated and the kinetic trace for every well was exported to Genedata Screener for analysis.
In Genedata Screener values for 6 h, 12 h, and 22 h from the kinetic traces were extracted. The values were normalized against negative controls (untreated cells). A standard dose-response analysis was performed on the normalized data.
The following data was reported at each of the following three aforementioned time points: (a) The dose-response curve, (b) The qAC50 and qAC50 Mode, and (c) Max Activity.
Cells were maintained in culture medium containing 10% Heat Inactivated (HI) FBS, 2 mM L-Glutamine and 50 µg/mL Gentamycin phenol red free RPMI-1640. Cells were split at 0.4 million/mL twice a week.
On Day 1, plates containing individual wells with test compounds at 10 mM concentration, 150 nL per well. The final concentrations range from […] compound (and no compound control) and compounds were thawed at room temperature for 1 hour. 25 μl of prewarmed medium was added into each well by multidrop (column 1, 3-22, 24), followed by addition of DMSO control (0.6% DMSO) in column 2. The plate was sealed using Breathe-Easy® sealing membrane and shaken for 30 min at room temperature to dissolve the test compound(s) in medium. The plate was then kept in the incubator for 1 hour at 37° C., 5% CO2.
MOLP8 cells in medium at […] (20000/50 μl final in assay) were prepared with CellEvent™ Caspase-3/7 Green Detection Reagent at 4 μM (2 μM final in assay). Once prepared, the cells were added to the test compound plate in an amount of 20000 and the plate was immediately placed in the IncuCyte and imaging started using following settings: 10× objective, 2 s exposure time in green channel, interval of 2 h, acquisition stopped after 22 h.
For analysis in IncuCyte, a Basic Analysis protocol was defined to calculate the “confluence” and “caspase” areas from the “Phase” and “green” images, respectively, as follows: (a) Confluence: Segmentation Adjustment 1, Hole Fill 0, Adjust Size −2, No filters (b) Caspase: Top-Hat segmentation, Radius 10, Threshold 0.3 GCU, Edge Split On with sensitivity 0, Hole Fill 0, Adjust Size 1, and filter on a minimum Area of 20 μm^2. The analyzer is trained on a sufficient number of positive and negative control wells, as well as compound treated wells, verifying that the “confluence” layer detects both live and dead (condensed) cells. […]

Setting [1] is: 6 h, read-out: MOLP8 Caspase 3/7 AC50 at 6 h.
[2] abbreviates: 12 h, read-out: MOLP8 Caspase 3/7 AC50 at 12 h.
Setting [3] is: 22 h, read-out: MOLP8 Caspase 3/7 AC50 at 22 h.

Each structure is given as a SMILES string. Where “and” joins values, the source holds several entries; their conditions need not be identical. Equal values may be shown once. Read-outs that look alike come from different tables or passages of the source.

Turning to `Cc1c(C(=O)O)n2c3ccc(Cl)c(c13)-c1c(nn(C)c1C)CSCc1cc(n(C)n1)CSc1cc(c3ccccc3c1)OCCC2` (single isomer, unassigned) [Compound 1, 1^5-chloro-1^3,2^1,2^5,6^1-tetramethyl-1^1H,2^1H,6^1H-10-oxa-4,8-dithia-1(4,1)-indola-2(4,3),6(3,5)-dipyrazola-9(3,1)-naphthalenacyclotridecaphane-1^2-carboxylic acid], the AC50 under setting [1] was 178 nM and 129 nM; the AC50 under setting [2] is 141 nM and 182 nM; the AC50 under setting [3] was 145 nM and 170 nM.
As to `Cc1c(C(=O)O)n2c3ccc(Cl)c(c13)-c1c(nn(C)c1C)CSCc1cc(n(C)n1)CSc1cc(c3ccccc3c1)OCCC2` (single isomer, unassigned) [Compound 2, 1^5-chloro-1^3,2^1,2^5,6^1-tetramethyl-1′H,2′H,6H-10-oxa-4,8-dithia-1(4,1)-indola-2(4,3),6(3,5)-dipyrazola-9(3,1)-naphthalenacyclotridecaphane-1^2-carboxylic acid], the AC50 is 4570 nM and 4790 nM under setting [1]; 4470 nM and 4680 nM under setting [2]; 4270 nM and 4470 nM under setting [3].

The record behind these values is patent publication US20220306653A1, “MACROCYCLIC INHIBITORS OF MCL-1” (Janssen Pharmaceutica NV, priority 2019, published 2022).
